Series [1] is described as follows: Oxidative status (peroxide value, anisidine value) of starting materials and products as obtained, CDR FoodLab Junior analyzer. Type of series: physicochemical. To be noted: as obtained / as used, before storage. The procedure: The final product in powder form is isolated by evaporating said first and second organic solvents and water from the reaction mixture to recover said basic amino acid salts of PUFAs. Preferably, said evaporation step is carried under reduced pressure between about 0° C.-70° C. depending on the properties of the equipment used. […] The evaporation step requires said first/second organic solvents and water to be in a liquid form, thereby excluding the freeze-drying methods that require the solvents to be frozen. The oxidative status of the obtained final product is quantified by peroxide value (PV), anisidine value (AV) and Totox value. PV is a measure of the level of the primary oxidation products (lipid hydroperoxides) in the product, which is specified in milliequivalents O2 per kg of sample, while the AV is an unspecific measure of saturated and unsaturated carbonyl compounds. Totox is calculated by the equation Totox=2*PV+AV.
(§1) Food Lab Analyzer: Among several techniques known in the art for determining the oxidative levels of a sample, CDR FoodLab® Junior analyzer is used herein for determining PV and AV. The procedures are described as below.
(§2) The solid product 0.5 g was dissolved in 2 mL of MeOH and HCl solution with the ratio of 1:10 (v/v). The mixture was stirred for 5 minutes, followed by the addition of 5 mL of water. The mixture was extracted with 3 mL of Hexane containing 100 ppm butylated hydroxytoluene (BHT). The organic layer was dried over MgSO4, filtrated and evaporated under reduced pressure at the temperature of 0-70° C. to get the fish oil in free acid form, which was evaluated with the CDR FoodLab® Junior analyzer to get anisidine and peroxide values using the Food Lab analyzer.

The nature of series [2]: Stability examination of L-lysine salts stored in clear vials with closed lids at room temperature (Table 1). Type of series: physicochemical. The settings on record: for TOTOX: Totox=2*PV+AV; for AV / PV: closed lids, room temperature. The protocol: The comparison of oxidative status of basic amino acid salts of PUFAs, starting material in ester form and fish oil in free acid form are assessed by measuring the PV and AV, then all the samples are subjected to the same oxidizing condition over a certain period of time, followed by the measuring PV and AV of the samples. The oxidizing conditions are selected from one of: 1) storage in closed containers at atmospheric condition, opened once daily for the first month, twice weekly for the second month, once weekly for the third month and twice a month up to 6 months; 2) storage in loosely closed containers exposed to air at 45° C. for 1 month.
as §1, §2
The molar ratio of EPA to L-lysine was 1:1. The mixture was stirred at atmospheric condition for 5 minutes to obtain a homogenous solution. 30 mL of ethanol was added to precipitate the L-lysine amino acid salt. […] About 4.5 g of EPA-Lys was stored in a 20 ml of clear vial with a diameter of 27 mm, which was placed with closed lids on the bench at room temperature for the stability examination for 90 days.
The molar ratio of DHA to L-lysine was 1:1. The mixture was stirred at atmospheric condition for 5 minutes to obtain a homogenous solution. 30 mL of ethanol was added to precipitate the L-lysine amino acid salt. […] About 4.5 g of […] was stored in a 20 ml of clear vial with a diameter of 27 mm, which was placed with closed lids on the bench at room temperature for the stability examination for 90 days.
The molar ratio of seal oil in free acid form to L-lysine was 1:1. The mixture was stirred at atmospheric condition for 5 minutes to obtain a homogenous solution. 35 mL of ethanol was added to precipitate the L-lysine amino acid salt.

The structures appear in SMILES notation.

Turning to `CC/C=C\C/C=C\C/C=C\C/C=C\C/C=C\C/C=C\CCC(=O)O.NCCCC[C@H](N)C(=O)O` [DHA-Lys, L-Lysine Salt of Docosahexaenoic Acid], in series [1], the “AV (anisidine value)” value is 29.3 A/g and the “PV (peroxide value)” value is recorded as 16.0 meqO2/kg. Moreover, in series [2] (Time 1 d), the TOTOX was 61.3, the AV came out at 29.3 A/g and the PV was 16.0 meq O2/Kg. In series [2] (Time 61 d), the TOTOX is recorded as 11.8, the AV was 4.0 A/g and the PV is recorded as 3.9 meq O2/Kg.
`CC/C=C\C/C=C\C/C=C\C/C=C\C/C=C\CCCC(=O)O.NCCCC[C@H](N)C(=O)O` [EPA-Lys, L-Lysine Salt of Eicosapentaenoic Acid]: in series [1], the “AV (anisidine value)” value is given as 9.5 A/g and the “PV (peroxide value)” value amounted to 6.0 meqO2/kg. In series [2] (Time 1 d), the TOTOX is listed as 21.5, the AV came out at 9.5 A/g and the PV was 6.0 meq O2/Kg. In series [2] (Time 61 d), the TOTOX was 3.8, the AV is under 0.5 A/g and the PV came out at 1.9 meq O2/Kg.

(Values after patent US20230068687A1, “PROCESS FOR PREPARING A SOLID FORM OF BASIC AMINO ACID SALTS OF POLYUNSATURATED FATTY ACIDS” (SILICYCLE INC., priority 2020, published 2023).)
